Results reported in paper PMC2667487, “Cellular localization of kinin B1 receptor in the spinal cord of streptozotocin-diabetic rats with a fluorescent [N^α-Bodipy]-des-Arg^9-bradykinin” (Journal of Neuroinflammation, 2009).
Square brackets hold non-standard residues; d marks the D form. Peptide text beside a SMILES is read from it. d2Nal = N[C@H](Cc1ccc2ccccc2c1)C(=O)O

Assays:
[1] = molecular target: T1, kinin B1R (Rattus norvegicus, UniProt P97583); test: competition curves by quantitative autoradiography, displacement of [^125I]-HPP-desArg^10-Hoe 140 (B1R); settings: 200 pM [^125I]-HPP-desArg^10-Hoe 140, competitor 10^-10 to 10^-6 M, thoracic spinal cord sections of STZ-treated rats, 90 min, room temperature, 25 mM PIPES-NH4OH pH 7.4; means ± SEM, 4 sections per rat from 7 rats; read-out: IC50, inhibition of total B1R binding sites
T1 construct: from tissue; host or cells: rat spinal cord sections (autoradiography)
T1 sequence (P97583 1-337): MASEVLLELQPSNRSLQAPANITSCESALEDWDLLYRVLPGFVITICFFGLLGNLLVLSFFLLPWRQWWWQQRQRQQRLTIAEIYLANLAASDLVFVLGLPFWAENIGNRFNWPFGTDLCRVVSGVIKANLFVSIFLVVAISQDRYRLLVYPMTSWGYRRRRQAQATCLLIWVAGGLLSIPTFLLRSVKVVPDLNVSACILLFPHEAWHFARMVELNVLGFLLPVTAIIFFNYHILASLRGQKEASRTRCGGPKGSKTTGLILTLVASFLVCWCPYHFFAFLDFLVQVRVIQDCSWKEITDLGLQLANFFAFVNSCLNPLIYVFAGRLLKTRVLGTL
Description: They were iodinated by the chloramine T method. […] At the end of the incubation period, slides were transferred sequentially through four rinses of 4 min each in 25 mM PIPES (pH 7.4; 4°C) dipped for 15s in distilled water (4°C) to remove the excess of salts, and then air-dried. Kodak Scientific Imaging Films BIOMAXTM MR® (Amersham Pharmacia Biotech Canada) were juxtaposed onto the slides in the presence of [^125I]-microscales and exposed at room temperature for 7 days. The films were developed (GBX developer) and fixed (GBX fixer). Autoradiograms were quantified by densitometry using an MCIDTM image analysis system (Imaging Research, St. Catharines, ON, Canada). A standard curve from [^125I]-microscales was used to convert density levels into fentomoles per milligram of protein [48]. Specific binding was determined by subtracting values of nonspecific binding from that of total binding. […] Each concentration of each competitor was tested on 4 sections per rat from 7 different rats. Those sections were exposed to the film, and total binding was calculated as described above. […] All data were expressed as means ± S.E.M. obtained from n rats. Statistical significance was determined with Student's t-test for unpaired samples or a one-way analysis of variance (ANOVA) followed by post-hoc Dunnett test for multiple comparisons.

[2] = system: B1R; settings: cited from earlier work
Source text: (§1) Importantly, the development of tactile and cold allodynia in a rat model of insulin-resistance was blocked by the B1R antagonist SSR240612 [28] and by two antioxidants (N-acetyl-L-cysteine and alpha-lipoic acid) ...

[3] = system: rat model of insulin-resistance; settings: cited from earlier work
Source text: as §1

Compound	IC50 [1] [nM]	induction of B1R, antioxidants [2]	development of tactile and cold allodynia, antioxidants [3]
CC1=CC(C)=[N+]2C1=Cc1ccc(CCC(=O)N[C@@H](CCCNC(=N)N)C(=O)N3CCC[C@H]3C(=O)N3CCC[C@H]3C(=O)NCC(=O)N[C@@H](Cc3ccccc3)C(=O)N[C@@H](CO)C(=O)N3CCC[C@H]3C(=O)N[C@@H](Cc3ccccc3)C(=O)O)n1[B-]2(F)F [BdABK, [N^α-Bodipy]-des-Arg^9-BK]	5.3	–	–
N=C(N)NCCC[C@H](N)C(=O)N1CCC[C@H]1C(=O)N1CCC[C@H]1C(=O)NCC(=O)N[C@@H](Cc1ccccc1)C(=O)N[C@@H](CO)C(=O)N1CCC[C@H]1C(=O)N[C@@H](Cc1ccccc1)C(=O)O [des-Arg^9-BK]	19	–	–
CC(=O)N[C@@H](CS)C(=O)O [N-acetyl-L-cysteine]	–	prevent the induction of B1R	blocked
O=C(O)CCCCC1CCSS1 (stereo not drawn) [alpha-lipoic acid]	–	prevent the induction of B1R	blocked
CC[C@H](C)[C@H](NC(=O)[C@@H](Cc1ccc2ccccc2c1)NC(=O)[C@H](CO)NC(=O)[C@H](Cc1ccccc1)NC(=O)CNC(=O)[C@@H]1CCCN1C(=O)[C@@H]1CCCN1C(=O)[C@H](CCCN=C(N)N)NC(=O)[C@H](CCCCN)NC(C)=O)C(=O)O [R-715, AcLys [D-βNal^7, Ile^8]des-Arg^9-BK] (Ac-KRPPGFS[d2Nal]I-OH)	4.3	–	–
